Assays:
p97 = p97 (Homo sapiens, UniProt P55072); test: P97 ATPase biochemical assay (ADP Glo); details: 20 nM p97, 20 μM ATP, 37° C. for 15 minutes
Experimental: The ATPase assay is performed according the following protocol: Purified enzyme (20 nM p97), substrate (20 μM ATP) and a dose titration of compounds are mixed in buffer (50 mM TRIS pH 7.5, 20 mM MgCl2, 0.02% TX-100, 1 mM DTT, 0.2% (v/v) glycerol) and incubated at 37° C. for 15 minutes. The reaction is terminated and the level of product generated is measured using the ADP Glo Assay Kit (Promega, Madison Wis.). Plotting product generated versus compound concentration and using a four-parameter fit model generates an IC50 value for each compounds.
The p97 assay is an initial screening assay used to determine inhibitory activity of the fused pyrimidine compounds of the invention against the p97 complex. As discussed above, inhibition of activity of the p97 proteosome complex can enable apoptosis and cause elimination of neoplastic cells (cancer cells). The method follows that of Christianson in Nat. Cell Biol., (2011) 14:93.
Assay Buffer is a mixture of 50 mM TRIS pH 7.5, 20 mM MgCl2, 0.02% TX-100, 1 mM DTT and 0.2% (v/v) Glycerol. The well plate is Platetype: Corning 3674, 384w plate. The identification kit is an ADP glo kit (Promega): stop buffer, detection reagent.
Serial dilute compound in DMSO in a 1:3.33-fold 10 point serial dilution.
in each well of 384w plate add the following reagents:
0.5 μL compound serial diluted in DMSO (Final Conc. 10%)
2 μL ATP (Final Conc.=20 uM, diluted in assay buffer)
2.5 μL p97 (Final Conc.=20 nM, diluted in assay buffer)
Incubate at 37 deg C. for 15 min.
Add 5 μL of stop buffer, incubate at RT for 40 min.
Add 10 μL of detection reagent, incubate at RT for 30 min.
Read luminescence on Envision plate reader.
Upon obtaining the data from the luminescence reading, the data may be analyzed as follows:
Normalize luminescence data using no enzyme (full inhibition) and no compound (no inhibition) controls. Plot normalized luminescence data against log-transformed concentration values and fit to a sigmoidal curve to determine IC50 values (done in Collaborative Drug Discovery software).

A549 cells = test: Cultured cancer cell viability assay (cell titer glo, CTG) in A549 cells; format: cell-based; details: Homo sapiens; A549 cells, 72 hr incubation, cell titer glo; read-out: A549 CTG IC50
Text: Anti-tumor effects are monitored in cultured cancer cells after several days of compound treatment. The cell titer glo assay (Promega) measures the amount of ATP present as a proxy for cellular viability. Cellular counting is done using high-content microscopy followed by image analysis. A hanging drop 3D-culture system (3D Biomatrix) is used followed by cell titer glo to measure growth in a tumor-like environment.
The cellular assay provides information about the anti-neoplastic activity of the compounds of the invention. The compounds are tested against cultured cancer cells to determine whether or not the compounds of the invention are capable of intersecting with cancer cells to minimize or eliminate such cells. The assay involves establishing colonies of such cells and then treating them with the test compound under specified conditions and analysis regima to determine results.
(§1) Cell Plating: • Seed cells ˜16 hrs prior to compound treatment • Plate 25 μL of A549 cells in every well of 384-well plate using multidrop. • Two (2) black plates for IF at 2500 cells/well • Let plate sit at room temp for 10-15 minutes prior to putting in incubator to • allow cells to stick in middle of plate. • One (1) white plate for viability at 500 cells/well.
(§2) Day 2 Treatment of Cultured Cells with Test Compounds • Treat Cells: • Serial dilute compounds with a 10 point 2-fold serial dilution in DMSO to make 250× stock compound solution • Dilute compounds 1:125 in cell culture media to make a 2× solution Add • 25 μl of dilution compounds to cell plates in well duplicates Put cells back in incubator (6 hr incubation for black plates, 72 hr incubation for white plates).
Viability Assay: • Thaw an aliquot of frozen cell titer glo (Promega G7572) at room temperature. • Add 45 mL of NaCl/PBS solution to 5 ml of cell titer glo (10×). • Remove white plates from incubator, leave at room temp for 30 minutes. • Add 25 μl of diluted cell titer glo to each well. • Shake plate for >1 minute. • Incubate plate for >5 minutes to stabilize luminescence. • Luminescence is stable for up to 3 hours. • Read luminescence on plate reader

[1] = system: K48-Ub (lysine-48 chain linkage of poly-ubiquitin) in A549 cells; test: A549 K48-Ub accumulation, immunofluorescence high-content imaging; format: cell-based; details: Homo sapiens, 6 hr incubation
Experimental: Image-analysis is used to generate quantitative data from these assays that can be fit to a four-parameter sigmoid curve to derive IC50 values. Substrates of the ubiquitin-proteasome system, such as p53, are monitored after tumor cell lines are incubated with compounds for several hours. Accumulation of these proteins indicates an inhibition of proteasome-mediated degradation. Accumulation of lysine-48 chain linkage of poly-ubiquitin is also monitored by immunofluorescence as an indicator of ubiquitin-proteasome system inhibition. Both LC3 and SQSTM1 are mediators of autophagy. The localization and amounts of these proteins are monitored by immunofluorescence and report on the activity and inhibition of autophagy in response to p97 inhibition.
as §1, §2
Fix/Stain Black Plates: • Incubate cells in black plates with compound at 37 deg C. for 6 hrs. add 15 μL of 16% Paraformaldehyde (PFA) directly into media of each well, incubate at room temp for 5 min, flick plate and wash in 50 μL of PBS block in 50 μL of Blocking Buffer for 30 minutes (can go up to several hours) • Blocking buffer: 1×PBS, 1% BSA, 0.3% Triton-X 100, Hoechst (1:10,000) incubate in 25 μL of primary antibody in blocking buffer at 4 deg C. over night
Secondary Antibodies: • AlexaFluor488 Goat anti-Rabbit 1:2,000 (Life Tech A11008) • AlexaFluor555 Goat anti-Mouse 1:2.000 (Life Tech A21422)
Day 3/4 • Black Plate Staining (cont): • wash black plates 3× in 50 μL PBS (˜5 min each) incubate in 25 μl of secondary antibody (1:2,000) in blocking buffer for 1-2 hrs at room temp (alexafluor488-anti-Rabbit/alexafluor555-anti-Mouse) • wash 4× in 50 μL PBS (˜5 min each) • leave plates in PBS for imaging • clean bottom of plates with 70% EtOH
Imaging: • Image plates in high content microscope with 405 nm, 488 nm and 555 nm filters
Data Analysis: • Nuclear counts and cellular intensities of each markers are measured using Hoechst as a nuclear marker with an automated image analysis protocol using Matlab software (Math Works)

p97, sequence (P55072 whole entry): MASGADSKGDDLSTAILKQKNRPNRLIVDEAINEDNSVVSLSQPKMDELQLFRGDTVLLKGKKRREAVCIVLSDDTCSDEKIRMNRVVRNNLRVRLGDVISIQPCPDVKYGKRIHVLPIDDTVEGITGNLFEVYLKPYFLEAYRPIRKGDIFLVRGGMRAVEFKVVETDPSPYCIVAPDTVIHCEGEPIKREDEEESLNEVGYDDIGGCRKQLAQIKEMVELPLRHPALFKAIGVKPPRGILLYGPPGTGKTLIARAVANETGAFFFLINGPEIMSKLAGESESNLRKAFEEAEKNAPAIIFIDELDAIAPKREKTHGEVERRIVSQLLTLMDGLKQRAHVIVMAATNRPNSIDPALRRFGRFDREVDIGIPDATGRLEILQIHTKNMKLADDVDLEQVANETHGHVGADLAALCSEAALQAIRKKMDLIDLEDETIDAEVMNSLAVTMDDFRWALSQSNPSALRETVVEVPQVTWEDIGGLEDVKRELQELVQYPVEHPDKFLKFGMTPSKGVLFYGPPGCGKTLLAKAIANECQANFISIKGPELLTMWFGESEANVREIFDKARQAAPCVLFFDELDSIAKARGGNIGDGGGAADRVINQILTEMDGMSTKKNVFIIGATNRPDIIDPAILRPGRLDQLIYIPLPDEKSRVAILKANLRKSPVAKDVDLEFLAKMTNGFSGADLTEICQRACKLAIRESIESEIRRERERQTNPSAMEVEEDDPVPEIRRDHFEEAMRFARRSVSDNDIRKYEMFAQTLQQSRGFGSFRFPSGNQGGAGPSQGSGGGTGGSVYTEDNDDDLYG

Row | IC50 (p97) | IC50 (A549 cells) | IC50 [1] | Peff A B, Range (Caco-2 cells; pH 7.4 Caco-2, A to B) | Peff B A, Range (Caco-2 cells; pH 7.4 Caco-2, B to A) | Compound
1 | < 30 nM | < 3000 nM | < 3000 nM |  |  | Cc1cc2c(C(N)=O)cccc2n1-c1nc2c(c(NCc3cccc(F)c3)n1)CCCN2 [FF26, 1-(4-((3-fluorobenzyl)amino)-5,6,7,8-tetrahydropyrido[2,3-d]pyrimidin-2-yl)-2-methyl-1H-indole-4-carboxamide]
2 | < 100 nM | < 3000 nM | < 3000 nM |  |  | Cc1[nH]c2c(C(N)=O)cccc2c1-c1nc(NCc2ccccc2)c2c(n1)OCCC2 [FF27, 3-(4-(benzylamino)-6,7-dihydro-5H-pyrano[2,3-d]pyrimidin-2-yl)-2-methyl-1H-indole-7-carboxamide]
3 | < 100 nM | < 3000 nM | < 3000 nM |  |  | NC(=O)c1cccc2c1cnn2-c1nc(NCc2ccccc2)c2c(n1)OCCC2 [FF28, 1-(4-(benzylamino)-6,7-dihydro-5H-pyrano[2,3-d]pyrimidin-2-yl)-1H-indazole-4-carboxamide]
4 | < 30 nM | < 3000 nM | < 3000 nM |  |  | Cc1cc2c(C(N)=O)cccc2n1-c1nc(NCc2ccccc2)c2c(n1)N(C)CCC2 [FF29, 1-(4-(benzylamino)-8-methyl-5,6,7,8-tetrahydropyrido[2,3-d]pyrimidin-2-yl)-2-methyl-1H-indole-4-carboxamide]
5 | < 30 nM | < 3000 nM | < 3000 nM |  |  | Cc1cc2c(C(N)=O)cccc2n1-c1nc(NCc2cc(F)cc(F)c2)c2c(n1)OCCC2 [FF30, 1-(4-((3,5-difluorobenzyl)amino)-6,7-dihydro-5H-pyrano[2,3-d]pyrimidin-2-yl)-2-methyl-1H-indole-4-carboxamide]
6 | < 100 nM | < 10000 nM | < 10000 nM |  |  | NCc1cc2c(C(N)=O)cccc2n1-c1nc(NCc2ccccc2)c2c(n1)OCCC2 [FF32, 2-(aminomethyl)-1-(4-(benzylamino)-6,7-dihydro-5H-pyrano[2,3-d]pyrimidin-2-yl)-1H-indole-4-carboxamide]
7 | < 30 nM | < 1000 nM | < 1000 nM |  |  | Cc1cc2c(C(N)=O)cccc2n1-c1nc2c(c(NCc3ccccc3)n1)NCCC2 [FF34, 1-(4-(benzylamino)-5,6,7,8-tetrahydropyrido[3,2-d]pyrimidin-2-yl)-2-methyl-1H-indole-4-carboxamide]
8 | < 30 nM | < 3000 nM | < 3000 nM |  |  | Cc1oc2c(C(N)=O)cccc2c1-c1nc2c(c(NCc3ccccc3)n1)CCCC2 [FF35, 3-(4-(benzylamino)-5,6,7,8-tetrahydroquinazolin-2-yl)-2-methylbenzofuran-7-carboxamide]
9 |  |  |  | 18.50-36.80 × E-6 cm/sec | 16.30-31.40 × E-6 cm/sec | CC(C)NCC(O)COc1cccc2ccccc12 (centres unmarked) [Propranolol]

The remaining lines, values behind:

Row | Compound | IC50 (p97) | IC50 (A549 cells) | IC50 [1] | Peff A B, Range (Caco-2 cells; pH 7.4 Caco-2, A to B) | Peff B A, Range (Caco-2 cells; pH 7.4 Caco-2, B to A)
10 | Cc1cc2c(C(N)=O)cccc2n1-c1nc2c(c(NCc3ccccc3)n1)CCCCC2 [FF18, 1-(4-(benzylamino)-6,7,8,9-tetrahydro-5H-cyclohepta[d]pyrimidin-2-yl)-2-methyl-1H-indole-4-carboxamide] | < 30 nM | < 1000 nM | < 3000 nM |  | 
11 | Cc1cc2c(C(N)=O)cccc2n1-c1nc(NCc2ccccc2)c2c(n1)C(C)CNC2 (centres unmarked) [FF19, 1-(4-(benzylamino)-8-methyl-5,6,7,8-tetrahydropyrido[4,3-d]pyrimidin-2-yl)-2-methyl-1H-indole-4-carboxamide] | < 100 nM | < 3000 nM | < 1000 nM |  | 
12 | Cc1cc2c(C(N)=O)cccc2n1-c1nc2c(c(NCc3ccccc3)n1)N(C)CCC2 [FF21, 1-(4-(benzylamino)-5-methyl-5,6,7,8-tetrahydropyrido[3,2-d]pyrimidin-2-yl)-2-methyl-1H-indole-4-carboxamide] | < 30 nM | < 1000 nM | < 1000 nM |  | 
13 | COc1nc2c(C(N)=O)cccc2n1-c1nc2c(c(NCc3ccccc3)n1)CCCN2 [FF23, 1-(4-(benzylamino)-5,6,7,8-tetrahydropyrido[2,3-d]pyrimidin-2-yl)-2-methoxy-1H-benzo[d]imidazole-4-carboxamide] | < 30 nM | < 3000 nM | < 3000 nM |  | 
14 | COc1nc2c(C(N)=O)cccc2n1-c1nc(NCc2ccccc2)c2c(n1)OCCC2 [FF24, 1-(4-(benzylamino)-6,7-dihydro-5H-pyrano[2,3-d]pyrimidin-2-yl)-2-methoxy-1H-benzo[d]imidazole-4-carboxamide] | < 30 nM | < 3000 nM | < 3000 nM |  | 
15 | Cc1cc2c(C(N)=O)cccc2n1-c1nc2c(c(NCc3cccc(F)c3)n1)NCCC2 [FF25, 1-(4-((3-fluorobenzyl)amino)-5,6,7,8-tetrahydropyrido[3,2-d]pyrimidin-2-yl)-2-methyl-1H-indole-4-carboxamide] | < 30 nM | < 3000 nM | < 3000 nM |  | 

Source: patent publication US10174005B2, “Fused pyrimidines as inhibitors of p97 complex” (Cleave Biosciences, Inc., priority 2014, dated 2019)
